# From US20170348306A1, “METHODS OF TREATING CANCER” (GLAXOSMITHKLINE LLC, priority 2011, published 2017)
# Assays:
# [1] = tested on: H3K27me3 in DLBCL cell lines; experiment: ELISA-based quantitation of H3K27me3 in treated cells; conditions: Homo sapiens, EZH2 WT and mutant DLBCL cell lines, 48 hours
# Method: Biochemical assays utilized the 5-member PRC2 complex (human Flag-EZH2, EED, SUZ12, AEBP2, RbAp48) containing either WT or mutant EZH2, [^3H-]SAM and the indicated peptide substrate; reactions were incubated for 30 minutes. Global histone modification levels were determined by ELISA or western blot methods using antibodies specific for total histone H3, H3K27me1, H3K27me2, or H3K27me3. Cell proliferation and Caspase-3/7 activity were assessed using CellTiter-Glo and Caspase-Glo 3/7 (Promega), respectively. Gene expression profiling was conducted using Affymetrix Human Genome U133 Plus 2.0 microarrays. Differentially-expressed probe sets were determined by fitting the data to a linear model using the limma statistical package (http://www.bioconductor.org) and carrying out pair-wise contrasts of treated versus control. […] H3K27me3 ChIP reads were aligned using Bowtie (56). […] A custom PERL script was utilized to quantify the average basal H3K27me3 ChIP-seq tag density across gene sets. […]
# Following tissue homogenization, tumor tissue lysates were prepared using the Epigentek Histone Extraction kit (OP-0006). […] Luminata Forte substrate (Millipore) was added 5 minutes before chemiluminescence was quantified with an EnVision multi-label plate reader (PerkinElmer). H3K27me3 levels were normalized to total H3 values and IC50 values were determined using a 4-parameter curve fit.
# [2] = tested on: H3K27me3/2/1, histone H3, EZH2, SUZ12, EED in lymphoma cell lines; experiment: Western blot of H3K27 methylation status and PRC2 components following GSK126 treatment; format: cell-based, human
# Method: Cell lines were obtained from the American Type Culture Collection or the Deutsche Sammlung von Mikroorganismen und Zellbulturen and maintained in the recommended cell culture media at 37° C. in 5% CO2. Cells were lysed with radioimmunoprecipitation (RIPA) buffer (ThermoScientific) and western blot analysis was conducted as previously described (41). Antibodies were obtained as previously described (41) or from Cell Signaling Technology (SUZ12, 3737), or Santa Cruz Biotechnology (EED, sc-28701).
# Cells (2×10^5/well) were seeded into six-well tissue culture plates in the appropriate cell culture media 24 hours before treatment.
# [3] = Tolerability in xenograft-bearing mice (body weight, behavior); format: in vivo
# Method: (§1) All studies were conducted after review by the Institutional Animal Care and Use Committee at GSK and in accordance with the GSK Policy on the Care, Welfare and Treatment of Laboratory Animals. […] Pfeiffer or KARPAS-422 cells (1×10^7) in 100% matrigel (BD Biosciences) were implanted subcutaneously in female beige SCID mice. Tumors were measured with calipers, block randomized according to tumor size into treatment groups. […] Mice were weighed and tumors measured with calipers twice weekly. For mouse pharmacokinetic studies, tumor and blood samples were harvested from euthanized mice at the indicated time. […] For pharmacodynamic studies, a portion of each tumor was frozen for H3K27me3/H3 ELISAs or placed in RNAlater (Ambion) for RNA isolation. For peripheral blood analyses, blood was harvested via cardiac puncture from euthanized, immunocompetent CD-1 mice (3 mice/group) on day 18. Blood was immediately placed into a Microtainer EDTA tube (BD) and gently mixed by inverting. A complete blood count analysis was conducted using the Advia 2120 hematology analyzer (Siemens Medical Solutions) using multi-species software as per manufacturer's instructions.
# [4] = Complete blood count analysis of peripheral blood; format: in vivo; conditions: immunocompetent CD-1 mice; twice weekly dosing over 18 days
# Method: as §1
smiles,measurement,setting,value
CC[C@H](C)n1cc(C)c2c(C(=O)NCc3c(C)cc(C)[nH]c3=O)cc(-c3ccc(N4CCNCC4)nc3)cc21 [GSK126],IC50,[1],10 to 252 nM
same,Total histone H3 and PRC2 components,"[2]; 25 nM-2 μM, 72 hrs",not affected
same,H3K27me1 level,[2]; 72 hours,only weakly reduced at the highest inhibitor concentration
same,tolerability,"[3]; doses and schedules examined, mice with xenografts",well tolerated
same,body weight,[3]; mice bearing Pfeiffer or KARPAS-422 xenografts,little to no decrease in body weight
same,"complete blood count, blood cell types",[4],no significant changes
